The values below come from patent publication US20220290184A1, “DONOR PIGS FOR XENOTRANSPLANTATION” (NZENO LIMITED, priority 2019, published 2022).

Holding throughout (format): cell-based, pig
The test system of one data set is porcine SCNT embryos. The data set can be described thus: Zona-free somatic cell nuclear transfer (SCNT) embryo development in vitro. As for the experimental part:
Ovaries were sourced from pre-pubertal gilts slaughtered at the Ruakura abattoir (AgResearch, New Zealand). Cumulus-oocyte complexes (COCs) were recovered by follicular aspiration and matured in vitro (IVM) for 44 h. Two IVM systems to mature porcine oocytes were compared: biphasic (ESOF and LSOF) IVM1/2 medium containing 1 mM dibutyryl cyclic adenosine monophosphate for the first 20-24 h (Bagg et al., 2006; Somfai and Hirao, 2011) and FLI medium supplemented with FGF2, LIF and IGF1 for the entire IVM period (Yuan et al., 2017).
COCs were denuded by vortexing with 0.1% hyaluronidase (Sigma) at 2000 rpm for about 60-90 sec. Oocytes were washed twice in HEPES-buffered TCM199 medium (H199)+10% FCS. Denuded oocytes were incubated for 10 min with 0.2M sucrose in H199+10% FCS. Oocytes that maintained a regular, round shape (but smaller diameter) along with a first polar body (1PB) were selected for use.
For zona-free SCNT, pronase was used to remove the zona pellucida. Oocytes were washed thoroughly before staining DNA with 5 μg/mL H33342 plus 7.5 μg/mL cytochalasin B (all Sigma) for 5 min. A 24 μm outer diameter blunt-ended pipette was used for UV-assisted enucleation of metaphase II stage oocytes at 35° C.
Donor cells (e.g. NZK1 kidney fibroblasts) were trypsinised to a single cell suspension after 5-7 days in medium with 0.5% FCS. Single cells were adhered to each enucleated cytoplast with the aid of 20 μg/mL phytohemagglutinin in H199+3 mg/mL BSA. […] Following fusion, reconstructed embryos were held in embryo culture medium without Ca+10% FCS+5 μg/mL cytochalasin B at 38.5° C. in 5% CO2 in air for 2-4 h before activation.
To maintain high levels of maturation promoting factor-cyclin B complex in oocytes aiding nuclear reprogramming, some experiments compared the addition of 5 μM of the proteasome inhibitor MG132 (Sigma). This was added to media formulations from the time of sucrose selection of oocytes until activation of NT reconstructed embryos (Le Bourhis et al., 2010).
Activation of reconstructed NT embryos was initiated with three direct current pulses of 1.0-1.5 kV/cm for 80 μs each, in buffer containing 0.1 mM calcium, ˜50-52 h after the start of IVM.
Within 5 min of electrical stimulation, reconstructed embryos were transferred to culture medium (e.g. ESOF) supplemented with 2 mM 6-dimethylaminopurine+5 μg/mL cytochalasin B and cultured individually in 5 μL drops for 3 h at 38.5° C. In 5% CO2. Afterwards, embryos were washed thoroughly in HEPES SOF before in vitro culture for 6-7 days. […] Embryo development was assessed on Day 6 or 7 and the numbers of nuclei in resulting blastocysts determined in selected experiments.

Data set [1] has as its system parthenogenetically activated porcine oocytes. The data set can be described thus: Parthenogenetic oocyte activation (PG) embryo development in vitro. To be noted: PG embryos; 5 μM MG132 from oocyte selection until activation.
For another data set, the system named is CMAH gene. The data set can be described thus: CRISPR activity assay with TIDE analysis, CMAH target locus. The protocol: Cell culture and transfection was performed as described in Example 4 section 4.1.2.
The CRISPR activity assay was performed as described in Example 4 section 4.1.3 using the CMAH-specific CRISPRs (68rev, 165fw) and CMAH primers (CMAHF-[…] (SEQ ID NO: 48) and CMAHR-[…]3 (SEQ ID NO: 49)).

Setting [2] is: SCNT embryos, 5 μM MG132 from oocyte selection until activation.

“Also recorded” adds a separate entry of the source. Marks after values point to notes of the source that are not given here. Where a SMILES comes first, the peptide text is derived from it. The star is where a group is joined. Cbz = O=C(OCc1ccccc1)*

Turning to `CC(C)C[C@@H](C=O)NC(=O)[C@H](CC(C)C)NC(=O)[C@H](CC(C)C)NC(=O)OCc1ccccc1` [MG132] (Cbz-Leu-Leu-Leu-aldehyde), the “Benefit in terms of in vitro development following SCNT or PG” value in the data set with porcine SCNT embryos (5 μM MG132 between oocyte selection and activation, preliminary experiment) is given as “unable to show any benefit; also recorded: showed no benefit”. Also, in the data set on porcine SCNT embryos (setting [2]), the “Blastocyst Development Day 7” value came to 11%^b, the Cleavage is on record as 99% and the Fusion was 49%. For the same compound, in data set [1], the “Blastocyst Development Day 7” value worked out at 23% and the Cleavage is reported as 100%.
As to “68rev: guide RNA targeting exon 3 of CMAH, TAAGAATAAGAGCCGCCTGA (SEQ ID NO: 46) (listed as DNA, chemistry not given here)”, the “CRISPR activity compared to the second CMAH CRISPR 165fw” value in the data set on CMAH gene was “higher activity”.
